Laboratory results as given in publication PMC12508949, “Evaluation of the Pharmacokinetic Interactions of Maytenus ilicifolia Mart. ex Reiss Extracts on Drug Intestinal Permeability and Hepatic Metabolism” (ACS Omega, 2025).

Experiments:
[1] = target: CYP3A4 (Homo sapiens, UniProt P08684); assay: CYP3A4 inhibition in human liver microsomes (midazolam 1-hydroxylation, nifedipine oxidation); conditions: extracts 2 mg/mL, secondary metabolites 100 μM
[2] = test system: CYP3A enzyme; set-up: method as in previous studies; conditions: ref previous studies; cited from earlier work
[3] = target: T1, P-gp (Homo sapiens, UniProt P08183); conditions: Caco-2; epicatechin 100 μM; reduced P app(B–A) and efflux of fexofenadine
T1 sequence (P08183 whole entry): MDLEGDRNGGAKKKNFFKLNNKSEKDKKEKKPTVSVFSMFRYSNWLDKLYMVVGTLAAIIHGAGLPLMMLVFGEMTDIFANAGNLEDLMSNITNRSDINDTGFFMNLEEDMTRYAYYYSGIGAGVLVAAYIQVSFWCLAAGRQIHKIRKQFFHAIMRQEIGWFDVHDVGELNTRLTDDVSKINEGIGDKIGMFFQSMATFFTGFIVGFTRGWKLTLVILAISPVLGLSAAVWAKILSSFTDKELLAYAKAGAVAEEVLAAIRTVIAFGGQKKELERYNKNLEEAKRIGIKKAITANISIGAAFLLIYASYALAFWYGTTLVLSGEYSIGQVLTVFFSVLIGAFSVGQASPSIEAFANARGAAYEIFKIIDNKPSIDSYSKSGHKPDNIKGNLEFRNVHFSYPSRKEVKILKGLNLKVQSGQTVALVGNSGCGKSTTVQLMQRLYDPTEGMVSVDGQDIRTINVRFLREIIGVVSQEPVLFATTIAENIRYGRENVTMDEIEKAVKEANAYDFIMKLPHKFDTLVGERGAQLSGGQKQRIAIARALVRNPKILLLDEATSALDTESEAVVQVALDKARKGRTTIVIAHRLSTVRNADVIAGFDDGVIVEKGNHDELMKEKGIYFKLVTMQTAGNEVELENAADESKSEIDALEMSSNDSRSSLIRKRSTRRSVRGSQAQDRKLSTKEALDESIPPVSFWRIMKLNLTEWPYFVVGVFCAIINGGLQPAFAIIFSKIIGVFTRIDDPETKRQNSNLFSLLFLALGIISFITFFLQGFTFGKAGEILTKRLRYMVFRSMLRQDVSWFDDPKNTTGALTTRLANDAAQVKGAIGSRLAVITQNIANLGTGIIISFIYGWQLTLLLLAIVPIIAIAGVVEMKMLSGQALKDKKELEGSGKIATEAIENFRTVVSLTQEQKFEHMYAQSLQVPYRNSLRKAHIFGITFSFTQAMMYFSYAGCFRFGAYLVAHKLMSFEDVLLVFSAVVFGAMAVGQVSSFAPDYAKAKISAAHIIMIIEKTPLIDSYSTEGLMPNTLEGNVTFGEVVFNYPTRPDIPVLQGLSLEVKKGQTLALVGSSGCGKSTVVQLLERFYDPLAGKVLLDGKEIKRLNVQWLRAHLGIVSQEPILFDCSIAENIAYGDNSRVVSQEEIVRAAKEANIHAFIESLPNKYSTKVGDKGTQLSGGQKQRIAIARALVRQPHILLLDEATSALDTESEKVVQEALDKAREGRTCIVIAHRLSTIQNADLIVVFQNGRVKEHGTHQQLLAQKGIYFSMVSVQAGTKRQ

[4] = target: T1, P-gp; set-up: determining P-gp activity, using a Caco-2 cell model; host or cells: Caco-2 cells; method as in Kitagawa et al.; conditions: KB-C2 cells; ref Kitagawa et al.; cited from earlier work
[5] = test system: CYP3A4; set-up: method as in Kimura et al.; conditions: ref Kimura et al., cited from earlier work; for inhibition of 6β-hydroxylation of testosterone: concentration of 100 μM; for IC50: read-out: IC50, 6β-hydroxylation of testosterone

CYP3A4 (Homo sapiens, UniProt P08684), sequence (P08684 whole entry): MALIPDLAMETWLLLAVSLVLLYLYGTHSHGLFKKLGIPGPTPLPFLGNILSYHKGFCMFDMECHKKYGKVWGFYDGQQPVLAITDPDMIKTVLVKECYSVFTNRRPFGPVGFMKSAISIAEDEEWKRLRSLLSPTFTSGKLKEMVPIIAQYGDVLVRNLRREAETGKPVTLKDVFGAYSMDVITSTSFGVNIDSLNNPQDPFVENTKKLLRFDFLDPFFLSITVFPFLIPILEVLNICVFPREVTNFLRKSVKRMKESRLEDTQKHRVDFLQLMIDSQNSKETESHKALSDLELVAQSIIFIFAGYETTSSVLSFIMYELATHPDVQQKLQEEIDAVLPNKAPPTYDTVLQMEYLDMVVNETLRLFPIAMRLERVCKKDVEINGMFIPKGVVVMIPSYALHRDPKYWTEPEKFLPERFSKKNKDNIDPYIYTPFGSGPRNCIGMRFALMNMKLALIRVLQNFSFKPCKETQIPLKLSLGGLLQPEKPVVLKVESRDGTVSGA

Row | SMILES | inhibitory activity on the CYP3A enzyme, testosterone 6β-hydroxylation [2] | inhibition of 6β-hydroxylation of testosterone [5] | IC50 [5] | other results
1 | O.Oc1cc(O)c2c(c1)O[C@H](c1ccc(O)c(O)c1)[C@@H](O)C2 [catechin] | higher than 50% | – | – | remaining activity (%RA) of CYP3A4, substrate reaction not specified [1]: higher than 50%
2 | Oc1cc(O)c2c(c1)O[C@H](c1ccc(O)c(O)c1)[C@H](O)C2 [epicatechin] | 50% | – | – | P-gp inhibitory potential (in words) [3]: slight inhibitory potential; effect on P-gp activity (in words) [4]: did not observe any effect
3 | O=c1c(O)c(-c2ccc(O)cc2)oc2cc(O)cc(O)c12 [kaempferol] | – | 100% | 8.8 µM | –
4 | O=c1c(O)c(-c2ccc(O)c(O)c2)oc2cc(O)cc(O)c12 [quercetin] | – | […] | […] | remaining activity (%RA), midazolam 1-hydroxylation ([1]; negative control = 100%): markedly inhibited; remaining activity (%RA), nifedipine oxidation ([1]; negative control = 100%): markedly inhibited
